# Measured values published in patent publication US20070116781A1, “Hydrogen Cyanamide Pesticide Formulations” (priority 2005, published 2007).
# How the values were obtained:
# [1] = system: combined weed species; experiment: Herbicidal activity, cyanamide and citric acid, pre-emergence, covered pots; assay type: in vivo
# Protocol: (§1) The weeds used in these tests were grown from a standard weed seed pack of common annual and perennial weeds representing an extreme weed situation. The weeds included crabgrass (Digitaria sanguinalis), yellow nutsedge (Cyperus esculentus), […] (Ipomoea spp.), pigweed (Amaranthus spp.), and other annual weeds. Observations of the effects on the weed population as a whole were made, and individual observations were made for crabgrass, yellow nutsedge, sicklepod, morningglory, and pigweed. Stock solutions of hydrogen cyanamide at 1.25% by weight and citric acid at 5.0% by weight, both in water, were prepared, the hydrogen cyanamide from a phosphate-buffered 50% aqueous solution. […] Data analyses were performed in the same manner as Example 1. The results expressed in weeds per pot are listed in Table XIV for all weeds, Table XV for crabgrass, Table XVI for yellow nutsedge, Table XVII for sicklepod, Table XVIII for morningglory, and Table XIX for pigweed, all at various application rates for hydrogen cyanamide, with and without citric acid.
# [2] = system: Dorylaimida nematodes; experiment: Effect on beneficial nematodes in covered pots of silt loam; assay type: in vivo
# Protocol: In this study, the soil was naturally infested with four species of nematodes, two of which were deleterious and two beneficial, and observations were made of both the nematode survival and the growth of the soybean plants.
# Stock solutions of hydrogen cyanamide at 1.0% by weight and propionic acid at 5.0% by weight, both in water, were prepared, the hydrogen cyanamide from a phosphate-buffered 50% aqueous solution. Planting pots measuring 10 cm in diameter, each containing 1 kg of soil, were used. The soil was silt loam from a cotton field, pH 6.2, CEC<10 meq/100 g soil, organic matter<1.0%. The treatment chemicals were combined in various dilutions such that 100 mL of the combined dilutions contained the desired amount of each chemical for each test. The combined dilutions were then applied to the soil surface in each pot, at 100 mL of combined dilution per pot. The dilutions were selected to achieve target application rates expressed in milligrams of the treatment chemical per kilogram of soil, with 1 milligram of treatment chemical per kilogram of soil being approximately equal to 2 kilograms of the chemical per hectare of soil or 2 pounds of the chemical per acre of soil.
# Immediately after the treatment chemicals were applied, each pot was covered by a thick (1.5 mil), clear, low-density polyethylene bag. After twelve days, the bags were removed and soil samples were taken from each pot for nematological analysis by the salad bowl technique of Rodriguez-Kabana, R., and M. H. Pope, Nematropica, 11: 175-186 (1981). The results of these analyses are listed in Table I as pre-plant test results. The results for the two deleterious nematodes are also shown as plots of the number of nematodes vs. the hydrogen cyanamide application rate in FIGS. 1 and 2.
# After the polyethylene bags were removed, each pot was planted with Hutcheson soybean seeds at 5 seeds per pot, and the seeds were allowed to germinate and the plants to grow for 45 days. The resulting plants were then removed from the pots, the root systems were washed, and the number of plants in each pot was determined. The weights of both fresh shoots and roots were also determined as well as the shoot height and the relative health of the root system, using a subjective index. Soil samples were also collected, and the soil and roots were incubated to determine nematode populations. Treatments were arranged in randomized complete block design with seven replications per treatment, and statistical evaluation of the data was performed with analyses of variance (ANOVA) and standard regression procedures. Fischer's Least Significant Difference at p 0.05 was calculated when appropriate. The results of these tests are listed as final test results in Tables II, III, and IV, with nematode populations in the soil listed in Table II, the nematode populations in the root systems in Table III, and the plant and root parameters of the soybean shoots in Table IV.
# [3] = system: yellow nutsedge; experiment: Herbicidal activity, cyanamide and citric acid, pre-emergence, covered pots; assay type: in vivo, Cyperus esculentus
# Protocol: as §1
# [4] = system: sicklepod; experiment: as above; assay type: in vivo, Senna obtusifolia
# Protocol: as §1
# [5] = 13 d after treatment, cyanamide 50 mg/kg soil
# [6] = 13 d after treatment, cyanamide 100 mg/kg soil
# [7] = 13 d after treatment, cyanamide 150 mg/kg soil
# [8] = 13 d after treatment, cyanamide 200 mg/kg soil
# [9] = 13 d after treatment, cyanamide 250 mg/kg soil
# [10] = 19 d after treatment, cyanamide 50 mg/kg soil
# [11] = 19 d after treatment, cyanamide 100 mg/kg soil
# [12] = 19 d after treatment, cyanamide 150 mg/kg soil
# [13] = 19 d after treatment, cyanamide 200 mg/kg soil
# [14] = 19 d after treatment, cyanamide 250 mg/kg soil
# [15] = 26 d after treatment, cyanamide 50 mg/kg soil
# [16] = 26 d after treatment, cyanamide 100 mg/kg soil
# [17] = 26 d after treatment, cyanamide 150 mg/kg soil
# [18] = 26 d after treatment, cyanamide 200 mg/kg soil
# [19] = 26 d after treatment, cyanamide 250 mg/kg soil
smiles,measurement,setting,value
"N#CN [Cyanamide, hydrogen cyanamide]",Weeds Per Pot (combined weed species),"[1]; 9 d after treatment, cyanamide 50 mg/kg soil",15.0
same,Weeds Per Pot (combined weed species),"[1]; 9 d after treatment, cyanamide 100 mg/kg soil",1.6
same,Weeds Per Pot (combined weed species),"[1]; 9 d after treatment, cyanamide 150 mg/kg soil",0.2
same,Weeds Per Pot (combined weed species),"[1]; 9 d after treatment, cyanamide 200 mg/kg soil",0
same,Weeds Per Pot (combined weed species),"[1]; 9 d after treatment, cyanamide 250 mg/kg soil",0
same,Weeds Per Pot (combined weed species),[1]; [5],14.4
same,Weeds Per Pot (combined weed species),[1]; [6],14.0
same,Weeds Per Pot (combined weed species),[1]; [7],0.9
same,Weeds Per Pot (combined weed species),[1]; [8],0
same,Weeds Per Pot (combined weed species),[1]; [9],0
same,Weeds Per Pot (combined weed species),[1]; [10],11.2
same,Weeds Per Pot (combined weed species),[1]; [11],4.8
same,Weeds Per Pot (combined weed species),[1]; [12],1.6
same,Weeds Per Pot (combined weed species),[1]; [13],0.3
same,Weeds Per Pot (combined weed species),[1]; [14],0
same,Weeds Per Pot (combined weed species),[1]; [15],21.5
same,Weeds Per Pot (combined weed species),[1]; [16],10.0
same,Weeds Per Pot (combined weed species),[1]; [17],3.0
same,Weeds Per Pot (combined weed species),[1]; [18],0.8
same,Weeds Per Pot (combined weed species),[1]; [19],0.8
same,Surviving Nematodes: Dorylaimida,"[2]; 12 d after treatment, pre-plant, cyanamide 20 mg/kg soil",24 per 100 mL of soil
same,Surviving Nematodes: Dorylaimida,"[2]; 12 d after treatment, pre-plant, cyanamide 40 mg/kg soil",20 per 100 mL of soil
same,Surviving Nematodes: Dorylaimida,"[2]; 12 d after treatment, pre-plant, cyanamide 60 mg/kg soil",5 per 100 mL of soil
same,Surviving Nematodes: Dorylaimida,"[2]; 12 d after treatment, pre-plant, cyanamide 80 mg/kg soil",6 per 100 mL of soil
same,Surviving Nematodes: Dorylaimida,"[2]; 12 d after treatment, pre-plant, cyanamide 120 mg/kg soil",0 per 100 mL of soil
same,Surviving Nematodes: Dorylaimida,"[2]; 57 d after treatment, 45 d after planting, cyanamide 20 mg/kg soil",9 per 100 mL of soil
same,Surviving Nematodes: Dorylaimida,"[2]; 57 d after treatment, 45 d after planting, cyanamide 40 mg/kg soil",8 per 100 mL of soil
same,Surviving Nematodes: Dorylaimida,"[2]; 57 d after treatment, 45 d after planting, cyanamide 60 mg/kg soil",4 per 100 mL of soil
same,Surviving Nematodes: Dorylaimida,"[2]; 57 d after treatment, 45 d after planting, cyanamide 80 mg/kg soil",5 per 100 mL of soil
same,Surviving Nematodes: Dorylaimida,"[2]; 57 d after treatment, 45 d after planting, cyanamide 120 mg/kg soil",0 per 100 mL of soil
same,Weeds Per Pot: Yellow Nutsedge,[3]; [5],0.9
same,Weeds Per Pot: Yellow Nutsedge,[3]; [6],0.4
same,Weeds Per Pot: Yellow Nutsedge,[3]; [7],0.1
same,Weeds Per Pot: Yellow Nutsedge,[3]; [8],0
same,Weeds Per Pot: Yellow Nutsedge,[3]; [9],0
same,Weeds Per Pot: Yellow Nutsedge,[3]; [10],2.4
same,Weeds Per Pot: Yellow Nutsedge,[3]; [11],0.6
same,Weeds Per Pot: Yellow Nutsedge,[3]; [12],0.6
same,Weeds Per Pot: Yellow Nutsedge,[3]; [13],0
same,Weeds Per Pot: Yellow Nutsedge,[3]; [14],0
same,Weeds Per Pot: Yellow Nutsedge,[3]; [15],2.9
same,Weeds Per Pot: Yellow Nutsedge,[3]; [16],1.7
same,Weeds Per Pot: Yellow Nutsedge,[3]; [17],1.0
same,Weeds Per Pot: Yellow Nutsedge,[3]; [18],0
same,Weeds Per Pot: Yellow Nutsedge,[3]; [19],0
same,Weeds Per Pot: Sicklepod,[4]; [5],1.3
same,Weeds Per Pot: Sicklepod,[4]; [6],0.9
same,Weeds Per Pot: Sicklepod,[4]; [7],0.3
same,Weeds Per Pot: Sicklepod,[4]; [8],0
same,Weeds Per Pot: Sicklepod,[4]; [9],0
same,Weeds Per Pot: Sicklepod,[4]; [10],1.7
same,Weeds Per Pot: Sicklepod,[4]; [11],0.7
same,Weeds Per Pot: Sicklepod,[4]; [12],0.4
same,Weeds Per Pot: Sicklepod,[4]; [13],0.3
same,Weeds Per Pot: Sicklepod,[4]; [14],0
same,Weeds Per Pot: Sicklepod,[4]; [15],1.6
same,Weeds Per Pot: Sicklepod,[4]; [16],0.7
same,Weeds Per Pot: Sicklepod,[4]; [17],0.4
same,Weeds Per Pot: Sicklepod,[4]; [18],0.3
same,Weeds Per Pot: Sicklepod,[4]; [19],0.1
